Source: paper PMC7509492, “To What Extent Do Fluorophores Bias the Biological Activity of Peptides? A Practical Approach Using Membrane-Active Peptides as Models” (Frontiers in Bioengineering and Biotechnology, 2020)
Ends that are not written are not given here. Peptide text beside a SMILES is read from it. * marks the point of attachment. 5FAM = O=C1OC2(c3ccc(O)cc3Oc3cc(O)ccc32)c2ccc(C(=O)*)cc21

Legend:
human RBCs = details: pH 7.4
Procedure: Fresh human blood was collected in EDTA tubes and centrifuged at 1,000 × g for 10 min at 4°C. The supernatant was discharged, and the pellet containing RBCs was washed three times with 1× PBS (137 mM NaCl, 2.7 mM KCl, 10 mM Na2HPO4, and 1.8 mM KH2PO4, pH 7.4) and resuspended in 1× PBS to obtain a 2.0% (v/v) suspension. Then, RBCs were added to centrifuge tubes containing two-fold serially diluted peptides to a final concentration ranging from 0.01 to 100 μM. The suspension was incubated for 24 h at 37°C with gentle stirring. After that, samples were centrifuged for 2 min at 1,000 × g. Supernatants were transferred to 96-well plates, and the hemoglobin released measured by absorbance at 570 nm in an Infinite F200 TECAN plate reader. 1× PBS with no peptides and Triton X-100 at 1 and 4% (v/v) were used as negative and positive controls, respectively. Hemolytic activity (%) was determined using the following equation:
(2) Hemolyticactivity(%)=AbsPT-AbsNC/AbsPC-AbsNC
where, AbsPT is the absorbance of treated samples, AbsNC is the absorbance from negative control, and AbsPC absorbance from positive control.
HC50 values were determined using the GraphPad Prism 7.0 software using a log(inhibitor) vs. normalized response. Experiments were performed on different days using independent blood donors.
(range from 0.01 to 100 μM). The percentage of hemolysis was determined by the absorbance of hemoglobin released into the supernatant. Melittin was included as a control peptide with hemolytic properties. The values were obtained from triplicates of three independent experiments. Error bars, S.D.

HBEC-5i cells = assay: CellTiter-Blue cell viability assay, HBEC-5i; assay type: cell-based, human; details: 24 h, peptide 0.01-100 μM, mean ± SD, triplicates of three independent experiments; for Cytotoxicity HBEC-5i cells IC10: Table 1, concentration causing 10% cell death
Procedure: (§1) Peptides cytotoxicity against both HBEC-5i and MDA-MB-231 cells was determined using CellTiter-Blue® Cell Viability Assay, according to the manufacturer’s instructions. The assay is based on the ability of viable cells to reduce resazurin into resorufin, a highly fluorescent metabolite. […] Therefore, using this methodology is possible to distinguish between metabolic and non-metabolic cells and indirectly determine the cytotoxicity of peptides. Briefly, HBEC-5i and MDA-MB-231 cells were carefully detached from T-flasks, as described previously, and seeded 15,000/100 and 10,000/100 μL, respectively, in 96-well plates (Corning, United States) and incubated for 24 h. After medium removal, cells were washed two times with 1× PBS and 100 μL of previously diluted peptides (range between 0.01 and 100 μM) in either DMEM or DMEM:F12 medium were added to MDA-MB-231 or HBEC-5i cells, respectively. After 24 h incubation, cells were washed two times with 1× PBS, and 20 μL of CellTiter-Blue® Reagent (diluted in 100 μL of medium) was added to each well and incubated for 3 h in a humidified atmosphere of 5% CO2 at 37°C. The fluorescence intensity was measured at λ with an excitation of 560 nm and maximum emission at 590 nm using the infinite F200 TECAN plate reader. Medium and 1% Triton X-100-containing medium were used as positive controls (100% cell viability) and negative controls (0% cell viability), respectively. Cell viability (%) was determined using the following equation:
(§2) (7) CellViability=FP-FNC/FPC-FNC×100
(§3) Fp is the fluorescence intensity of peptide-treated cells, FNC is the fluorescence intensity for negative controls, and FPC is the fluorescence intensity for positive controls.
(§4) Experiments were performed on different days using independently grown cell cultures.
(§5) FIGURE 4 In vitro cytotoxicity unlabeled- and labeled-peptides. (A,B) Cytotoxicity against HBEC-5i cells. (C,D) Cytotoxicity against MDA-MB-231 cells. 1.5 × 10^4 and 1.0 × 10^4 cells of HBEC-5i and MDA-MB-231 cells, respectively, were incubated with various concentrations of peptides (range from 0.01 to 100 μM). The percentage of viability was determined using CellTiter® Blue reagent assay. […] Error bars, S.D.

[1] = CellTiter-Blue cell viability assay, HBEC-5i; assay type: cell-based, human; details: human, HBEC-5i cells, Table 1, peptide 0.01-100 μM, mean ± SD, triplicates of three independent experiments, read-out: Cytotoxicity HBEC-5i cells IC50
Procedure: as §1, §2, §3, §4, §5

[2] = system: HBEC-5i cells (in vitro BBB model); assay: In vitro BBB translocation across HBEC-5i transwell monolayer; assay type: in vitro ADME, human; details: HBEC-5i monolayer on PET transwell 1.0 μm pores, apical to basolateral, 10 μM, 24 h, DMEM:F12 without phenol red, mean ± SD, triplicates of three independent experiments
From the text: HBEC-5i cells were allowed to grow until confluence in a gelatin-coated T-flask. Then, cells were carefully harvested with trypsin-EDTA (Gibco/Thermo Fisher, United States) and seeded 8,000 cells/well to 0.1% gelatin solution coated tissue culture inserts [transparent polyester (PET) membrane with 1.0 μm pores] for 24-well plates (BD Falcon, United States). During 8 days, the medium was changed every 2 days. After 8 days, cells were washed two times with 1× PBS and once with DMEM:F12 medium without phenol red (Gibco/Thermo Fisher, United States). Then, peptides diluted in DMEM:F12 medium without phenol red to a final concentration of 10 μM were added to the apical side of the in vitro BBB model (Figure 1). Experiments were performed on different days using independently grown cell cultures.
FIGURE 1 Scheme of an in vitro BBB transwell membrane system. Human brain endothelial cells (HBEC-5i) are cultured as monolayer on the apical side of a polyester (PET) transwell insert (1.0 μm pore size). Then, 10 μM of peptides are added to the apical side, and the translocation measured as the amount detected on the basolateral side.
The translocation of peptides labeled with different fluorophores was determined by fluorescence emission. After 24 h incubation, samples from the apical and basolateral side were collected and analyzed. Fluorescence was measured using the infinite F200 TECAN plate reader. The percentage (%) of translocation was calculated using the following equation:
(3) Translocation(%)=(Fi-Fcells/Fpeptide-FMedium)×100
Fi is the fluorescence intensity recovered, Fcells is the fluorescence intensity recovered from cells without peptide incubation, Fpeptide is the fluorescence intensity of total peptide initially added to the transwell apical side, and FMedium is the fluorescence intensity of the medium.
The translocation of unlabeled peptides was determined by the calculation of the respective area under the curve (AUC) in the reversed phase HPLC chromatograms. After 24 h incubation, samples from the apical and basolateral side were collected and analyzed by HPLC on a PerkinElmer Series 200 pump coupled to a PerkinElmer Series 200 UV/Vis Detector on a Luca C18 column (4.6 mm × 50 mm, 3 μm, Phenomenex, United States), eluting with linear gradients of HCOOH/MeCN (0.1%, v/v) into HCOOH/H2O (0.1%, v/v) over 15 min at 1 mL/min. UV detection was λ = 220 nm. The percentage (%) of translocation was calculated using the following equation:
(4) Translocation(%)=(AUCi/AUCpeptide)×100
AUCi is the AUC of peptide recovered and AUCpeptide is the AUC of total peptide initially added to the transwell apical side.

| Molecule | Hemolytic activity HC10 (human RBCs) | Hemolytic activity HC50 (human RBCs) | Hemolytic activity HC90 (human RBCs) | Cytotoxicity HBEC-5i cells IC10 (HBEC-5i cells) | CC50 at 24 h [1] | Translocation (%) ([2]; labeled peptide, quantified by fluorescence emission) | Cytotoxicity HBEC-5i cells IC90 (HBEC-5i cells; Table 1, concentration causing 90% cell death) | Translocation (%) ([2]; unlabeled peptide, quantified by HPLC (AUC, UV 220 nm)) |
| --- | --- | --- | --- | --- | --- | --- | --- | --- |
| CC[C@H](C)[C@H](NC(=O)CNC(=O)[C@H](C)NC(=O)c1ccc2c(c1)C(=O)OC21c2ccc(O)cc2Oc2cc(O)ccc21)C(=O)N[C@@H](CC(C)C)C(=O)N[C@@H](CCCCN)C(=O)N[C@@H](CCCNC(=N)N)C(=O)N[C@@H](Cc1c[nH]c2ccccc12)C(N)=O [CF-PepH3] (5FAM-AGILKRW-NH2) | >200 µM | >200 µM | >200 µM | >200 µM | > 200 µM | 57.09 ± 2.43% | – | – |
| SGTQEEY-NH2 [PepNeg] | >200 µM | >200 µM | >200 µM | >200 µM | > 200 µM | – | >200 µM | 50.16 ± 3.13% |
